Target: human IDO1 (Homo sapiens, UniProt P14902)
Experiment: Assessment of human IDO-1 inhibitory activity in Hela cells (Interferon-gamma activated, Ehrlich reagent, absorbance at 490 nm)
Format: cell-based
Parameters: endogenous in cells; host or cells: HeLa cells stimulated with interferon-gamma
Details: 18 hours
Description: Exemplary compounds were tested for inhibition of IDO activity.
HeLa cells were seeded at 20,000 cells per 30 µL per well with RPMI/phenol red free media containing 10% FBS in a 384-well tissue culture plate (black with clear bottoms). 50 nL of compound was added to cells and incubated at 37° C. for one hour. 20 μL of the recombinant human Interferon-gamma (R&D System, Cat. #285-IF, at final concentration of 10 ng/ml) or recombinant murine Interferon-gamma (PEPROTECH® Inc., Cat. #315-05, final concentration of 5 ng/ml) was added to activate IDO signaling. The cells were incubated for 18 hours in 37° C. incubator with 5% CO2.
Compound treatment was stopped by adding 5 μl trichloroacetic acid to a final concentration of 3%. Subsequently, the cell plate was further incubated at 50° C. for 30 minute. An equal volume supernatant (20 μL) and 2% (w/v) Ehrlich reagent (4-dimethylaminobenzaldehyde) in glacial acetic acid were mixed in a new clear bottom 384-well plate. This plate was incubated at room temperature for 30 minutes. Absorbance at 490 nm was measured on Envision plate reader.
Compound IC50 values were calculated using counts from unstimulated (no INF-gamma treatment) wells as 100% inhibition. INF-gamma treatment without compound treatment as 0% inhibition.

human IDO1, sequence (P14902 whole entry): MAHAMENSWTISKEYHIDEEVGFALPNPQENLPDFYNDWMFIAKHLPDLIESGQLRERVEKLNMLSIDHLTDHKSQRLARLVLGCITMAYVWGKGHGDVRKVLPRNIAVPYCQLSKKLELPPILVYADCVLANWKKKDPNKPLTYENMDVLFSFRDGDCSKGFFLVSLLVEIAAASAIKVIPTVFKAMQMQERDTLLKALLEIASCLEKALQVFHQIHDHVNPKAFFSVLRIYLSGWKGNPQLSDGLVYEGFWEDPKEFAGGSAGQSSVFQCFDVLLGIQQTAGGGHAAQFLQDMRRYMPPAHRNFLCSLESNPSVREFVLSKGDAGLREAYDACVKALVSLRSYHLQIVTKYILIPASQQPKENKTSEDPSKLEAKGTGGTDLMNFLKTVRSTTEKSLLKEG

| Molecule | IC50 |
| --- | --- |
| COCC(CC(=O)O)c1ccc(N(C)C2CCOCC2)c(Nc2ccc(C#N)cc2F)c1 (single isomer, unassigned) [Example 883, 3-(3-((4-cyano-2-fluorophenyl)amino)-4-(methyl(tetrahydro-2H-pyran-4-yl)amino)phenyl)-4-methoxybutanoic acid] | < 50 nM |
| (R)-3-(4-((1,1-dioxidotetrahydro-2H-thiopyran-4-yl)(ethyl)amino)-3-((2-ethoxypyrimidin-5-yl)amino)phenyl)-4-isopropoxybutanoic acid [Example 333] | > 50 nM |
| COCC(CC(=O)OC)c1ccc(N(CC(F)F)C2CCOCC2)c(Nc2ccc(Cl)cc2)c1 (stereo not shown) [Example 319, methyl 3-(3-((4-chloro-phenyl)amino)-4-((2,2-difluoroethyl) (tetrahydro-2H-pyran-4-yl)amino)phenyl)-4-methoxy-butanoate] | < 5 nM |
| CCC(CC(=O)O)c1cc(F)c(N(CC)C2CCOCC2)c(Nc2ccc(Cl)cc2)c1 (single isomer, unassigned) [Example 144, 3-(3-((4-chlorophenyl)amino)-4-(ethyl (tetrahydro-2H-pyran-4-yl)amino)-5-fluorophenyl)pentanoic acid] | < 5 nM |
| 3-(4-((1,1-dioxidotetrahydro-2H-thiopyran-4-yl)(ethyl)amino)-3-((4-fluorophenyl)amino)phenyl)-4-isopropoxybutanoic acid [Example 340] | < 50 nM |
| CCN(c1ccc(C(CC(=O)O)C2CC2)cc1Nc1cnc(OC)nc1)C1CCOCC1 (single isomer, unassigned) [Example 38, 3-cyclopropyl-3-(4-(ethyl(tetrahydro-2H-pyran-4-yl)amino)-3-((2-methoxypyrimidin-5-yl)amino)phenyl) propanoic acid] | < 50 nM |
| COCC(CC(=O)O)c1ccc(N(C)C2CCOCC2)c(Nc2ccc(C#N)c(F)c2)c1 (single isomer, unassigned) [Example 882, 3-(3-((4-cyano-3-fluorophenyl)amino)-4-(methyl(tetrahydro-2H-pyran-4-yl)amino)phenyl)-4-methoxybutanoic acid] | < 50 nM |
| CCOc1ncc(Nc2cc([C@H](COC)CC(=O)O)ccc2N2CCOCC2CC)cn1 (single isomer, unassigned) [Example 1307] | > 50 nM |
| (R)-3-(3-((4-chlorophenyl)amino)-4-((1,1-dioxidotetrahydro-2H-thiopyran-4-yl)(ethyl)amino)phenyl)-4-isopropoxybutanoic acid [Example 330] | < 5 nM |
| CCC(CC(=O)O)c1cc(Nc2ccc(Cl)cc2)c(N(CC)C2CCOCC2)cc1F (single isomer, unassigned) [Example 861, 3-(5-((4-Chlorophenyl)amino)-4-(ethyl(tetrahydro-2H-pyran-4-yl)amino)-2-fluorophenyl)pentanoic acid] | < 5 nM |
| CCN(c1cc(F)c([C@@H](COC)CC(=O)O)cc1Nc1ccc(Cl)cc1)C1CCOCC1 (stereo in doubt) [Example 851, 3-(5-((4-chlorophenyl)amino)-4-(ethyl(tetrahydro-2H-pyran-4-yl)amino)-2-fluorophenyl)-4-methoxybutanoic acid] | < 5 nM |
| (R)-3-(4-((1,1-dioxidotetrahydro-2H-thiopyran-4-yl)(ethyl)amino)-3-((4-fluorophenyl)amino)phenyl)-4-isopropoxybutanoic acid [Example 331] | < 50 nM |
| CCN(c1ccc([C@H](COC)CC(=O)O)cc1Nc1ncc(F)cc1F)C1CCOCC1 (single isomer, unassigned) [Example 395] | > 50 nM |
| COCCN(c1ccc(C(COC)CC(=O)O)cc1Nc1ccc(F)cc1)C1CCOCC1 (single isomer, unassigned) [Example 260, 3-(3-((4-fluorophenyl)amino)-4-((2-methoxyethyl)(tetrahydro-2H-pyran-4-yl)amino)phenyl)-4-methoxybutanoic acid] | < 50 nM |
| CCCN(c1ccc(C(CC)CC(=O)O)cc1NC(=O)Nc1ccc(C)cc1)C1CCS(=O)(=O)CC1 (single isomer, unassigned) [Example 14 Enantiomer 2, 3-(4-((1,1-Dioxidotetrahydro-2h-thiopyran-4-yl)(propyl)amino)-3-(3-(p-tolyl)ureido)phenyl)pentanoic acid] | > 50 nM |
| COCC(CC(=O)O)c1ccc(N2CCOC[C@H]2C(C)C)c(NC(=O)Nc2ccc(C#N)cc2)c1 (single isomer, unassigned) [Example 915] | > 50 nM |
| CCCN(c1ccc(C(CC)CC(=O)O)cc1Nc1cnc(OCC)nc1)C1CCS(=O)(=O)CC1 (single isomer, unassigned) [Example 13 Enantiomer 2, 3-(4-((1,1-Dioxidotetrahydro-2h-thiopyran-4-yl)(propyl)amino)-3-((2-ethoxypyrimidin-5-yl)amino)phenyl)pentanoic acid] | < 50 nM |
| 3-(5-((4-chlorophenyl) amino)-4-(ethyl(tetrahydro- 2H-pyran-4-yl)amino)-2- fluorophenyl)-4- methoxybutanoic acid [Example 852] | < 50 nM |
| COCC(CC(=O)O)c1ccc(N(CC(F)F)C2CCOCC2)c(Nc2ccc(C#N)cc2)c1 (single isomer, unassigned) [Example 323] | < 5 nM |
| COCCN(c1ccc(C(COC)CC(=O)O)cc1Nc1ccc(Cl)cc1)C1CCOCC1 (single isomer, unassigned) [Example 256 Enantiomer 2, 3-(3-((4-Chlorophenyl)amino)-4-((2-methoxyethyl)(tetrahydro-2H-pyran-4-yl)amino)phenyl)-4-methoxybutanoic acid] | < 5 nM |

More lines, now with the values ahead:

| IC50 | Molecule |
| --- | --- |
| < 50 nM | CCN(c1ccc([C@H](COC)CC(=O)O)cc1Nc1ccc(C)cc1)C1CCOCC1 (single isomer, unassigned) [Example 410] |
| < 5 nM | CCC(CC(=O)O)c1cc(Nc2cnc(OC)nc2)c(N(CC)C2CCOCC2)cc1F (single isomer, unassigned) [Example 864, 3-(4-(ethyl(tetrahydro-2H-pyran-4-yl)amino)-2-fluoro-5-((2-methoxypyrimidin-5-yl)amino)phenyl)pentanoic acid] |
| > 50 nM | CCOc1ncc(Nc2cc([C@@H](COC)CC(=O)O)ccc2N2CCOCC2CC)cn1 (single isomer, unassigned) [Example 1299] |
| > 50 nM | CCN(c1ccc(C(CC(=O)O)C2CC2)cc1NC(=O)Nc1ccc(C#N)cc1)C1CCOCC1 (single isomer, unassigned) [Example 255 Enantiomer 2, 3-(3-(3-(4-Cyanophenyl)ureido)-4-(ethyl(tetrahydro-2H-pyran-4-yl)amino)phenyl)-3-cyclopropylpropanoic acid] |
| > 50 nM | CCOc1ncc(Nc2cc(C(CC)CC(=O)O)ccc2N2CCC(C)CC2)cn1 (single isomer, unassigned) [Example 45, 3-(3-((2-ethoxypyrimidin-5-yl)amino)-4-(4-methylpiperidin-1-yl)phenyl)pentanoic acid] |
| > 50 nM | Cc1ccc(NC(=O)Nc2cc(C(CC(=O)O)C3CC3)ccc2N2C[C@@H](C)O[C@@H](C)C2)cc1 (single isomer, unassigned) [Example 251 Enantiomer 2] |
| < 5 nM | CCCN(c1ccc(C(COC)CC(=O)O)cc1Nc1ccc(F)cc1)C1CCS(=O)(=O)CC1 (single isomer, unassigned) [Example 186, 3-(4-((1,1-dioxidotetrahydro-2H-thiopyran-4-yl)(propyl)amino)-3-((4-fluorophenyl)amino)phenyl)-4-methoxybutanoic acid] |
| < 5 nM | (S)-3-(3-((4-chlorophenyl)amino)-4-((1,1-dioxidotetrahydro-2H-thiopyran-4-yl)(ethyl)amino)phenyl)-4-isopropoxybutanoic acid [Example 325] |
| < 50 nM | CCC(CC(=O)O)c1ccc(N(CCOC)C2CCOCC2)c(Nc2cnc(OC)nc2)c1 (single isomer, unassigned) [Example 1262, 3-(4-((2-methoxyethyl)(tetrahydro-2H-pyran-4-yl)amino)-3-((2-methoxypyrimidin-5-yl)amino)phenyl)pentanoic acid] |
| < 50 nM | COCCN(c1ccc(C(COC)CC(=O)O)cc1Nc1ccc(C#N)cc1)C1CCOCC1 (single isomer, unassigned) [Example 259, 3-(3-((4-cyanophenyl)amino)-4-((2-methoxyethyl)(tetrahydro-2H-pyran-4-yl)amino)phenyl)-4-methoxybutanoic acid] |
| < 50 nM | CCN(c1ccc([C@@H](COC)CC(=O)O)cc1Nc1ccc(C#N)c(OC)c1)C1CCOCC1 [Example 380] |
| < 5 nM | CCC(CC(=O)O)c1ccc(N(CC)C2CCS(=O)(=O)CC2)c(Nc2ccc(Cl)cc2)c1 (single isomer, unassigned) [Example 334 Enantiomer 2, 3-(3-((4-Chlorophenyl)amino)-4-((1,1-dioxidotetrahydro-2H-thiopyran-4-yl)(ethyl)amino)phenyl)pentanoic acid] |
| < 50 nM | CCOc1ncc(Nc2cc(C(CC)CC(=O)O)ccc2N(CC)C2CCOC2)cn1 (single isomer, unassigned) [947 D1] |
| > 50 nM | CCC1COCCN1c1ccc([C@H](COC)CC(=O)O)cc1Nc1ccc(F)cn1 (single isomer, unassigned) [Example 1310] |
